Columns and labels:
TRK A, B & C kinase = biological target: T1, TRK A, B & C kinase; assay: TRK A, B & C kinase assay (ADP-Glo / HTRF KinEASE-TK); format: biochemical; settings: ADP-Glo or HTRF KinEASE-TK kit, isoform not specified, read-out: IC50 (nM) Enzymatic assay
T1 construct: fused on or other part: Carna's Trk kinases are usually GST-tagged cytoplasmic domains
Experimental: ADP-Glo assay kit was purchased from Promega. poly (Glu, Tyr), Magnesium sulfate, Bovine serum albumin (BSA) and dimethylsulfoxide(DMSO) were purchased from Sigma-Aldrich. Tris-HCl buffer was purchased from BD Gentest. HTRF KinEASE-TK kit was purchased from cisbio. TRK A, B & C kinase was purchased from Carna bioscience.
Kinase assay was performed for Chemical Compounds 1-61 using two methods using luminescent ADP-Glo assay kit (Promega) and HTRF KinEASE-TK assay kit (cisbio). The luminescent ADP-Glo assay kit (Promega) measures ADP formed from a kinase reaction. ADP converted into ATP, which is then converted into light by Ultra-Glo luciferase. The HTRF KinEASE-TK assay kit (cisbio) measures tyrosine kinase activities using one substrate and a universal detection system.
ADP-Glo Assay Kit (Promega)
The protein kinase assay was performed for Chemical Compounds 1-61 at […] concentrations are 0.4 ng/ul of TrKA, 0.5 ng/ul of TrKB and 3 ng/ul of TrKC, respectively), 5 μL of 1 ug/ul stock solution of poly(glu, Tyr), 5 μL of compounds or assay buffer, 5 μL of ATP (125 μM stock solution).
The assay was started by incubating the reaction mixture in a 96-well plate at 30° C. for 1 hr. After the incubation, the assay was terminated by the addition of 25 […] Detection Reagent was added, and the 96-well plate was shaken and then incubated for additional 30 min at ambient temperature. The 96-well reaction plate was then read on an Enspire plate reader. The IC50 values were derived through a curve fitting using SigmaPlot.
HTRF KinEASE-TK Assay Kit (Cisbio)
The HTRF KinEASE-TK assay was performed for Chemical Compounds 1-61 in 384-well low volume microplate (Greiner). The HTRF KinEASE-TK assay format involves the two steps. The first step is kinase reaction step. This kinase reaction step was performed at RT (room temperature) in final volume of 10 ul according to the following assay reaction recipe: 10 ul of kinase mixture (Kinase (2 ul)+ATP (2 ul)+Substrate (2 ul)+Compound (4 ul)). Kinase final concentrations were 0.3 ng/ul of TRKA, 0.1 ng/ul of TRKB, 0.03 ng/ul of TRKC, respectively. ATP final concentrations were 14.7 uM (TRKA), 4.77 uM (TRKB), 25.6 uM (TRKC) respectively. TK-substrate final concentration was 0.3 ng/ul. The mixtures exposed to Dose response concentration (DRC) compound from 0 to 100 nM for 40 min. During the kinase reaction step, the kinase reaction was started by the addition of ATP. Kinase phosphorylates the substrate.
The second is detection step. 10 ul of detection reagents (5 ul Sa-XL 665 in EDTA+5 ul TK Antibody-Eu in EDTA) was added to kinase mixture. This step was performed at room temperature for 1 hr. The detection reagent detects phosphorylated substrates.
Finally 384-well reaction plate was then read on FlexStation 3 machine. The fluorescence was measured at 620 nm (Cryptate) and 665 nm (XL665). A ratio is calculated ([…]/620)×10^4 for each well. The IC50 value was derived through a curve fitting using GraphPad Prism. Table 1 below includes the results of the assays.

KM12-luc cells = assay: Cell proliferation assay (KM12); settings: 72 hours exposure, read-out: IC50 (nM) Cell-based assay (KM12)
Experimental: Doxorubicin was purchased from Sigma Aldrich (D1515). All compounds were diluted in DMSO (Sigma Aldrich, D2650). AlamarBlue® cell viability reagent was purchased from Thermo Scientific (88952). CellTiter 96® AQueous One Solution Cell proliferation assay was purchased from Promega. KM12-luc cells were obtained from JCRB (National Institute of Health Sciences, Tokyo, Japan). They were maintained in DMEM medium (GIB-11965-118) supplemented with 10% fetal bovine serum (Gibco, 16000-044) and MEM Non-Essential Amino Acids Solution (Thermo Scientific, 11140-050). TF-1 cells were obtained from ATCC. They were maintained in RPMI medium (GIB-A10491) supplemented with 10% fetal bovine serum (Gibco, 16000-044), GM-CSF (Thermo Scientific, 11140-050), and β-NGF (R&D systems). Trypsin/EDTA was purchased from Gibco (GIB-25300-054, 0.05%). 96-well plates were purchased from Corning Inc.
The proliferation assay was performed for Chemical Compounds 1-61 s in media supplemented with 10% FBS, using AlamarBlue® cell viability reagent or CellTiter 96® AQueous One Solution Cell proliferation assay kit. Cells were cultured in humidified 37° C. incubator with 5% CO2. To evaluate the antiproliferation activity of compounds, TF-1 cells were adjusted to GM-CSF free media (RPMI, 10% FBS, and 1% penicillin-streptomycin) for 16 hr and were seeded in 96-well plates at 30,000 cells/well with medium (RPMI, 10% FBS, 1% penicillin-streptomycin and 10 ng/ml human β-NGF). KM12-luc were seeded at 10,000 cells per well into 96-well plates. After overnight incubation, serial dilutions of compounds were added to triplicate wells, and cells were exposed for 72 hours. The final concentration of DMSO was adjusted to 0.5% in media. Quantitation of cell growth was assessed using two kinds of reagent. 20 ul of AlamarBlue® reagent in an amount equal to 10% of the culture volume was added to each well and were incubated in humidified 37° C. incubator with 5% CO2 for 2 hr. Otherwise, 20 ul of CellTiter 96® reagent was added to each well and were incubated in the same conditions as previously described. Data were plotted, and GI50 values were calculated using GraphPad software. Table 1 below includes the results of the assays.

Molecule | IC50 (TRK A, B & C kinase) | IC50 (KM12-luc cells)
Fc1ccc(F)c([C@H]2CCCN2c2ccn3ncc(-c4nnc(N5CCNCC5)o4)c3n2)c1 [Chemical Compound 18, (R)-2-(5-(2-(2,5-difluorophenyl)pyrrolidin-1-yl)pyrazolo[1,5-a]pyrimidin-3-yl)-5-(piperazin-1-yl)-1,3,4-oxadiazole] | > 100 nM | 
Fc1ccc(F)c([C@H]2CCCN2c2ccn3ncc(-c4nnc(-c5cn[nH]c5)s4)c3n2)c1 [Chemical Compound 19, (R)-2-(5-(2-(2,5-difluorophenyl)pyrrolidin-1-yl)pyrazolo[1,5-a]pyrimidin-3-yl)-5-(1H-pyrazol-4-yl)-1,3,4-thiadiazole] | < 10 nM | 
Fc1ccc(F)c([C@H]2CCCN2c2ccn3ncc(-c4nnc(-c5cc[nH]n5)s4)c3n2)c1 [Chemical Compound 20, (R)-2-(5-(2-(2,5-difluorophenyl)pyrrolidin-1-yl)pyrazolo[1,5-a]pyrimidin-3-yl)-5-(1H-pyrazol-3-yl)-1,3,4-thiadiazole] | > 100 nM | 
(R,E)-3-(5-(2-(2,5-difluorophenyl)pyrrolidin-1-yl)pyrazolo[1,5-a]pyrimidin-3-yl)-1-(4-ethylpiperazin-1-yl)prop-2-en-1-one [Chemical Compound 54] | > 100 nM | 
Fc1ccc(F)c([C@H]2CCCN2c2ccn3ncc(-c4nnc(C5CCNCC5)o4)c3n2)c1 [Chemical Compound 24, (R)-2-(5-(2-(2,5-difluorophenyl)pyrrolidin-1-yl)pyrazolo[1,5-a]pyrimidin-3-yl)-5-(piperidin-4-yl)-1,3,4-oxadiazole] | < 10 nM | 
Fc1ccc(F)c([C@H]2CCCN2c2ccn3ncc(-c4cn(C5CCNCC5)nn4)c3n2)c1 [Chemical Compound 33, (R)-5-(2-(2,5-difluorophenyl)pyrrolidin-1-yl)-3-(1-(piperidin-4-yl)-1H-1,2,3-triazol-4-yl)pyrazolo[1,5-a]pyrimidine] | < 10 nM | 
Fc1ccc(F)c([C@H]2CCCN2c2ccn3ncc(-c4nnc(N5CCNCC5)s4)c3n2)c1 [Chemical Compound 22, (R)-2-(5-(2-(2,5-difluorophenyl)pyrrolidin-1-yl)pyrazolo[1,5-a]pyrimidin-3-yl)-5-(piperazin-1-yl)-1,3,4-thiadiazole] | < 10 nM | 
O=C(Nc1nnc(-c2cnn3ccc(N4CCC[C@@H]4c4cc(F)ccc4F)nc23)s1)c1ccccc1 [Chemical Compound 21, (R)—N-(5-(5-(2-(2,5-difluorophenyl)pyrrolidin-1-yl)pyrazolo[1,5-a]pyrimidin-3-yl)-1,3,4-thiadiazol-2-yl)benzamide] | > 100 nM | 
Fc1ccc(F)c([C@H]2CCCN2c2ccn3ncc(-c4nnc(N5CCCNCC5)s4)c3n2)c1 [Chemical Compound 23, (R)-2-(1,4-diazepan-1-yl)-5-(5-(2-(2,5-difluorophenyl)pyrrolidin-1-yl)pyrazolo[1,5-a]pyrimidin-3-yl)-1,3,4-thiadiazole] | < 10 nM | 

Further lines, with some results ahead:

IC50 (TRK A, B & C kinase) | Molecule | IC50 (KM12-luc cells)
< 10 nM | CC(C)N1CCN(C(=O)/C=C/c2cnn3ccc(N4CCC[C@@H]4c4cc(F)ccc4F)nc23)CC1 [Chemical Compound 55, (R,E)-3-(5-(2-(2,5-difluorophenyl)pyrrolidin-1-yl)pyrazolo[1,5-a]pyrimidin-3-yl)-1-(4-isopropylpiperazin-1-yl)prop-2-en-1-one] | < 100 nM
< 10 nM | CC(C)(O)C1CN(C(=O)/C=C/c2cnn3ccc(N4CCC[C@@H]4c4cc(F)ccc4F)nc23)CCN1 (stereo partly drawn) [Chemical Compound 52, (E)-3-(5-((R)-2-(2,5-difluorophenyl)pyrrolidin-1-yl)pyrazolo[1,5-a]pyrimidin-3-yl)-1-(3-(2-hydroxypropan-2-yl)piperazin-1-yl)prop-2-en-1-one] | 
< 10 nM | O=C(/C=C/c1cnn2ccc(N3CCC[C@@H]3c3cc(F)ccc3F)nc12)N1CC[C@H](O)C1 [Chemical Compound 60, (E)-3-(5-((R)-2-(2,5-difluorophenyl)pyrrolidin-1-yl)pyrazolo[1,5-a]pyrimidin-3-yl)-1-((S)-3-hydroxypyrrolidin-1-yl)prop-2-en-1-one] | < 100 nM
> 100 nM | O=C(/C=C/c1cnn2ccc(N3CCC[C@@H]3c3cc(F)ccc3F)nc12)N1CCCNCC1 [Chemical Compound 56, (R,E)-1-(1,4-diazepan-1-yl)-3-(5-(2-(2,5-difluorophenyl)pyrrolidin-1-yl)pyrazolo[1,5-a]pyrimidin-3-yl)prop-2-en-1-one] | 
< 10 nM | Fc1ccc(F)c([C@H]2CCCN2c2ccn3ncc(-c4cn(C5CCCNC5)nn4)c3n2)c1 (stereo partly drawn) [Chemical Compound 34, 5-((R)-2-(2,5-difluorophenyl)pyrrolidin-1-yl)-3-(1-(piperidin-3-yl)-1H-1,2,3-triazol-4-yl)pyrazolo[1,5-a]pyrimidine] | 
< 10 nM | O=C1CN(C(=O)/C=C/c2cnn3ccc(N4CCC[C@@H]4c4cc(F)ccc4F)nc23)CCN1 [Chemical Compound 51, (R,E)-4-(3-(5-(2-(2,5-difluorophenyl)pyrrolidin-1-yl)pyrazolo[1,5-a]pyrimidin-3-yl)acryloyl)piperazin-2-one] | 
< 10 nM | CN1CCN(C(=O)/C=C/c2cnn3ccc(N4CCC[C@@H]4c4cc(F)ccc4F)nc23)CC1 [Chemical Compound 53, (R,E)-3-(5-(2-(2,5-difluorophenyl)pyrrolidin-1-yl)pyrazolo[1,5-a]pyrimidin-3-yl)-1-(4-methylpiperazin-1-yl)prop-2-en-1-one] | < 100 nM
< 10 nM | O=C(Cn1cc(-c2cnn3ccc(N4CCC[C@@H]4c4cc(F)ccc4F)nc23)nn1)N1CCNCC1 [Chemical Compound 37, (R)-2-(4-(5-(2-(2,5-difluorophenyl)pyrrolidin-1-yl)pyrazolo[1,5-a]pyrimidin-3-yl)-1H-1,2,3-triazol-1-yl)-1-(piperazin-1-yl)ethan-1-one] | 
< 10 nM | Fc1ccc(F)c([C@H]2CCCN2c2ccn3ncc(-c4cn(C5CCNC5)nn4)c3n2)c1 (stereo partly drawn) [Chemical Compound 35, 5-((R)-2-(2,5-difluorophenyl)pyrrolidin-1-yl)-3-(1-(pyrrolidin-3-yl)-1H-1,2,3-triazol-4-yl)pyrazolo[1,5-a]pyrimidine] | 

From patent US9701681B2, “Fused ring heteroaryl compounds and their use as Trk inhibitors” (CMG Pharmaceutical Co., Ltd., priority 2014, dated 2017)
